Results from patent publication US5492929A, “Condensed heterocyclic compounds useful for inhibiting acyl-CoA” (Takeda Chemical Industries, Ltd., priority 1992, dated 1996).

What was measured:
[1] = biological target: T1, Acyl-CoA:cholesterol acyltransferase (ACAT) (Rattus norvegicus, UniProt Q7TQM4); assay: ACAT inhibitory action: labeled cholesterol ester formation from [1-14C]oleoyl-CoA and endogenous cholesterol, small-intestinal mucosal microsomal enzyme; assay type: biochemical, rat (Sprague-Dawley); settings: 10^-6 M; read-out: ACAT inhibitory rate (%)
T1 construct: prepared from the microsomal fraction of mucosal cells from the small intestines of rats; from tissue; host or cells: microsomal fraction of small-intestinal mucosal cells, fasted 6-week-old male Sprague-Dawley rats
T1 sequence (Q7TQM4 1-524): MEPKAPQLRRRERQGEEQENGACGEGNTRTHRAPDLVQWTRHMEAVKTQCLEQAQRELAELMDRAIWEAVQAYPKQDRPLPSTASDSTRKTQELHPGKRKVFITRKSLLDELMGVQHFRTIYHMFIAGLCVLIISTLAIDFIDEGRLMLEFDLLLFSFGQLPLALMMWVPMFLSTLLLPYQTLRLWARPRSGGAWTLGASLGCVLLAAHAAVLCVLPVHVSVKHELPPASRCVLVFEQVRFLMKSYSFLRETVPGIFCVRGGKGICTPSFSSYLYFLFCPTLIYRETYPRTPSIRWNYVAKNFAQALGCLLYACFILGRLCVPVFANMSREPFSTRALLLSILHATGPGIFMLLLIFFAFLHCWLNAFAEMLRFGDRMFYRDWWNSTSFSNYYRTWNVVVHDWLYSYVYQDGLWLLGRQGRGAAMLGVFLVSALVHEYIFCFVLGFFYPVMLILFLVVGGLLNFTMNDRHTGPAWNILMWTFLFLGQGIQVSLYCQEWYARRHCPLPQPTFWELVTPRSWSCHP
Description: In accordance with the method disclosed by Heider et al. on Journal of Lipid Research, 24, p.1127 (1983), an enzyme sample ACAT was prepared from the microsomal fraction of mucosal cells from the small intestines of rats (6-week old male Sprague-Dawleys) fasted for 20 hours.
The ACAT activity was determined by, in accordance with the method disclosed by Helgerud et al. on Journal of Lipid Research 22, p.271 (1981), measuring the amount of labeled cholesterol ester from [1-^14 C]oleoyl-CoA and endogenous cholesterol.
(1) In Table 2, the labeled cholesterol ester formation inhibitory rate (%) determined when supplemented with 10^-6 M of a test compound (a representative one of the compounds obtained in the following Examples 1 to 24) is shown as the index of ACAT inhibitory activity.

[2] = tested on: hypercholesterolemic ICR mice; assay: Hypocholesterolemic (cholesterol-lowering) activity in mice fed a high cholesterol-cholic acid diet; assay type: in vivo, mouse (ICR); settings: serum, vs control
Description: Groups of 6 ICR mice (2 subgroups of 3 mice) were made hypercholesterolemic by being fed a high cholesterol-cholic acid diet for 7 days and administered with test compounds orally on the last two days. One-half of the total dose was given on day 6 followed by the other half on day 7. After fasting overnight (16 hours after the last dose), the animals were sacrificed and sera were collected together for the each subgroup for measuring the levels of cholesterol and heparin precipitating lipoproteins (HPL). Both cholesterol and HPL levels were measured with autoanalyzer by the enzymatic CHOD-PAP method for the former and by the turbidimetric method of Shurr et. al. [in C. E. Dau ed. Atherosclerosis Drug Discovery, Plenum Publishing, New York, pp.215-229 & 231-249, 1976.] for the latter.

[3] = biological target: T1, Acyl-CoA:cholesterol acyltransferase (ACAT); assay: ACAT inhibitory action: labeled cholesterol ester formation from [1-14C]oleoyl-CoA and endogenous cholesterol, small-intestinal mucosal microsomal enzyme; assay type: biochemical, rat (Sprague-Dawley); settings: 10^-8 M; read-out: ACAT inhibitory rate (%) (in parentheses)
[4] = 30 mg/kg po (total dose, halves on day 6 and 7)
[5] = 1 mg/kg po (total dose, halves on day 6 and 7)
[6] = 10 mg/kg po (total dose, halves on day 6 and 7)

inhibition at 1 µM [1]	inhibition at 0.01 µM [3]	Compound	further results
99.2%	93.7%	Cc1ccccc1-c1c(CC(=O)Nc2c(C(C)C)cccc2C(C)C)oc2ccc(Cl)cc12 [Example 1, N-[2,6-Bis(1-methylethyl)phenyl]-5-chloro-3-(2-methylphenyl)-2-benzofuranacetamide]	Reduction % HPL (heparin precipitating lipoproteins) [2, 4]: 27%; Reduction % cholesterol [2, 4]: 32%
98.8%		COc1cccc(OC)c1NC(=O)Cc1oc2ccc(Cl)cc2c1-c1ccccc1C [Example 2, 5-Chloro-N-(2,6-dimethoxyphenyl)-3-(2-methylphenyl)-2-benzofuranacetamide]	
90.8%		Cc1cc(C)c(NC(=O)Cc2oc3ccc(Cl)cc3c2-c2ccccc2C)c(C)c1 [Example 3, 5-Chloro-3-(2-methylphenyl)-N-(2,4,6-trimethylphenyl)-2-benzofuranacetamide]	
99%		CC(C)c1cccc(C(C)C)c1NC(=O)Cc1oc2ccc(Cl)cc2c1-c1ccccc1 [Example 4, N-[2,6-Bis(1-methylethyl)phenyl]-5-chloro-3-phenyl-2-benzofuranacetamide]	
93.2%		COc1cccc(OC)c1NC(=O)Cc1oc2ccc(Cl)cc2c1-c1ccccc1 [Example 5, 5-Chloro-N-(2,6-dimethoxyphenyl)-3-phenyl-2-benzofuran acetamide]	
92.3%		Cc1ccccc1-c1c(CC(=O)Nc2c(C(C)C)cccc2C(C)C)n(C)c2ccc(Cl)cc12 [Example 7, N-[2,6-Bis(1-methylethyl)phenyl]-5-chloro-1-methyl-3-(2-methylphenyl)-2-indoleacetamide]	
91.2%		COc1cccc(OC)c1NC(=O)Cc1c(-c2ccccc2C)c2cc(Cl)ccc2n1C [Example 8, 5-Chloro-N-(2,6-dimethoxyphenyl)-1-methyl-3-(2-methylphenyl)-2-indoleacetamide]	
99.1%	92.2%	Cc1ccccc1-c1c(NC(=O)Nc2c(C(C)C)cccc2C(C)C)oc2ccc(Cl)cc12 [Example 11, N-[2,6-Bis(1-methylethyl)phenyl]-N'-[5-chloro-3-(2-methylphenyl)-2-benzofuryl]urea]	Reduction % HPL (heparin precipitating lipoproteins) [2, 5]: 27%; Reduction % cholesterol [2, 5]: 28%; Reduction % HPL (heparin precipitating lipoproteins) [2, 6]: 38%; Reduction % cholesterol [2, 6]: 31%
98.1%	50.3%	CCOc1cccc(OCC)c1NC(=O)Cc1oc2ccc(Cl)cc2c1-c1ccccc1C [Example 16, 5-Chloro-N-(2,6-diethoxyphenyl)-3-(2-methylphenyl)-2-benzofuranacetamide]	
92.9%		Cc1ccccc1-c1c(CC(=O)Nc2c(F)cc(F)cc2F)oc2ccc(Cl)cc12 [Example 17, 5-Chloro-3-(2-methylphenyl)-N-(2,4,6-trifluorophenyl)-2-benzofuranacetamide]	
90.1%		Cc1ccccc1-c1c(NC(=O)Nc2c(F)cc(F)cc2F)oc2ccc(Cl)cc12 [Example 18, N-[5-Chloro-3-(2-methylphenyl)-2-benzofuryl]-N'-(2,4,6-trifluorophenyl)urea]	
99%	28.8%	COc1cccc(OC)c1NC(=O)Nc1oc2ccc(Cl)cc2c1-c1ccccc1C [Example 19, N-[5-Chloro-3-(2-methylphenyl)-2-benzofuryl]-N'-(2,6-dimethoxyphenyl)urea]	
99.4%	39.9%	CCOc1cccc(OCC)c1NC(=O)Nc1oc2ccc(Cl)cc2c1-c1ccccc1C [Example 20, [5-Chloro-3-(2-methylphenyl)-2-benzofuryl]-N'-(2,6-diethoxyphenyl)urea]	
